Experimental data: ChEMBL document CHEMBL2086259, “13,28-Epoxy triterpenoid saponins from Ardisia japonica selectively inhibit proliferation of liver cancer cells without affecting normal liver cells” (Bioorg Med Chem Lett, 2012)
Calls of active or inactive are those of the source. The rule behind the calls is not given here.

Experiments:
A549 = test: Cytotoxicity against human A549 cells after 72 hrs by MTT assay; format: functional, cell-based; details: A549, 72 h
[1] = Induction of apoptosis in human HL-7702 cells assessed as early apoptotic cells at 2.5 uM after 48 hrs by annexin V-FITC/propidium iodide staining based flow cytometry (Rvb =6.7 %); format: cell-based; details: l02, 48 h
Bel-7402 [2] = test: Induction of apoptosis in human Bel7402 cells assessed as late apoptotic cells at 2.5 uM after 24 hrs by annexin V-FITC/propidium iodide staining based flow cytometry (reference value: 7.5 %); format: functional
NCI-H446 = test: Cytotoxicity against human NCI-H446 cells after 72 hrs by MTT assay; format: functional, cell-based; details: NCI-H446, 72 h
Bel-7402 [3] = test: Down regulation of Cdc25A expression in human Bel7402 cells at 2.5 uM after 48 hrs by Western blotting analysis; format: functional, cell-based
DU-145 = test: Cytotoxicity against human DU145 cells after 72 hrs by MTT assay; format: functional, cell-based; details: DU-145, 72 h
[4] = Cytotoxicity against human HL-7702 cells after 72 hrs by MTT assay; format: cell-based; details: L02, 72 h
[5] = Cytotoxicity against human HL-7702 cells measured for 72 hrs by MTT assay; format: cell-based; details: l02, 72 h
MKN-45 = test: Cytotoxicity against human MKN45 cells after 72 hrs by MTT assay; format: functional, cell-based; details: MKN-45, 72 h
SGC-7901 = test: Cytotoxicity against human SGC7901 cells after 72 hrs by MTT assay; format: functional, cell-based; details: SGC-7901, 72 h
NCI-H460 = test: Cytotoxicity against human H460 cells after 72 hrs by MTT assay; format: functional, cell-based; details: NCI-H460, 72 h
[6] = Cell cycle arrest in human HL-7702 cells assessed as accumulation at S phase by FACS flow cytometry; format: ADME, cell-based; details: l02
[7] = Cytotoxicity against human LTEP-A2 cells after 72 hrs by MTT assay; format: functional, cell-based; details: LTEP-A2, 72 h
MCF7 = test: Cytotoxicity against human MCF7 cells after 72 hrs by MTT assay; format: functional, cell-based; details: MCF7, 72 h
Bel-7402 [8] = test: Induction of apoptosis in human Bel7402 cells assessed as early apoptotic cells at 2.5 uM after 48 hrs by annexin V-FITC/propidium iodide staining based flow cytometry (reference value: 6.9 %); format: functional
Bel-7402 [9] = test: Induction of apoptosis in human Bel7402 cells assessed as increase in caspase 8 levels; format: functional, cell-based
Bel-7402 [10] = test: Cell cycle arrest in human Bel7402 cells assessed as accumulation at G2/M phase by FACS flow cytometry; format: functional
NCI-H157 = test: Cytotoxicity against human NCI-H157 cells after 72 hrs by MTT assay; format: functional, cell-based; details: NCI-H157, 72 h
Bel-7402 [11] = test: Induction of apoptosis in human Bel7402 cells assessed as late apoptotic cells at 2.5 uM after 48 hrs by annexin V-FITC/propidium iodide staining based flow cytometry (reference value: 3.7 %); format: functional
[12] = Cell cycle arrest in human HL-7702 cells assessed as accumulation at sub-G1 phase by FACS flow cytometry; format: cell-based; details: l02
[13] = Down regulation of Cyclin A expression in human HL-7702 cells assessed as reduction in mRNA level at 2.5 uM after 48 hrs by RT-PCR analysis; format: ADME, cell-based; set-up: scale not given: the % may be the effect or the level left; details: l02, 48 h
Caco-2 = test: Cytotoxicity against human Caco2 cells after 72 hrs by MTT assay; format: functional, cell-based; details: Caco-2, 72 h
[14] = Cytotoxicity against human HL-7702 cells at 2.5 uM by MTT assay; format: cell-based; details: l02, 2.5 µM, TDE = time-dependent effect
Bel-7402 [15] = test: Down regulation of Cyclin B expression in human Bel7402 cells at 2.5 uM after 48 hrs by Western blotting analysis; format: functional, cell-based
Bel-7402 [16] = test: Cytotoxicity against human Bel7402 cells after 72 hrs by MTT assay; format: functional, cell-based; details: Bel-7402, 72 h
[17] = Cell cycle arrest in human HL-7702 cells assessed as accumulation at G1 phase by FACS flow cytometry; format: cell-based; details: l02
Bel-7402 [18] = test: Cell cycle arrest in human Bel7402 cells assessed as accumulation at G1 phase by FACS flow cytometry; format: functional
Bel-7402 [19] = test: Cytotoxicity against human Bel7402 cells at 2.5 uM by MTT assay; format: functional, cell-based; details: TDE = time-dependent effect
Bel-7402 [20] = test: Induction of apoptosis in human Bel7402 cells assessed as late apoptotic cells at 2.5 uM after 12 hrs by annexin V-FITC/propidium iodide staining based flow cytometry (reference value: 5.5 %); format: functional
Bel-7402 [21] = test: Down regulation of Cyclin A expression in human Bel7402 cells at 2.5 uM after 48 hrs by Western blotting analysis; format: functional, cell-based
Bel-7402 [22] = test: Induction of apoptosis in human Bel7402 cells assessed as early apoptotic cells at 2.5 uM after 12 hrs by annexin V-FITC/propidium iodide staining based flow cytometry (reference value: 3.2 %); format: functional
Bel-7402 [23] = test: Induction of apoptosis in human Bel7402 cells assessed as early apoptotic cells at 2.5 uM after 24 hrs by annexin V-FITC/propidium iodide staining based flow cytometry (reference value: 3.8 %); format: functional
Bel-7402 [24] = test: Induction of apoptosis in human Bel7402 cells assessed as caspase 8 activation; format: functional, cell-based
HepG2 = test: Cytotoxicity against human HepG2 cells after 72 hrs by MTT assay; format: functional, cell-based; details: HepG2, 72 h
HCT-116 = test: Cytotoxicity against human HCT116 cells after 72 hrs by MTT assay; format: functional, cell-based; details: HCT-116, 72 h
Bel-7402 [25] = test: Down regulation of Cdc25A expression in human Bel7402 cells at 2.5 uM after 12 hrs by Western blotting analysis; format: functional, cell-based
Bel-7402 [26] = test: Down regulation of CDK4 expression in human Bel7402 cells at 2.5 uM after 48 hrs by Western blotting analysis; format: functional, cell-based
OVCAR-3 = test: Cytotoxicity against human OVCAR3 cells after 72 hrs by MTT assay; format: functional, cell-based; details: OVCAR-3, 72 h
Bel-7402 [27] = test: Cell cycle arrest in human Bel7402 cells assessed as accumulation at sub-G1 phase by FACS flow cytometry; format: functional
Bel-7402 [28] = test: Down regulation of CDK1 expression in human Bel7402 cells at 2.5 uM after 48 hrs by Western blotting analysis; format: functional, cell-based
Bel-7402 [29] = test: Down regulation of CDK2 expression in human Bel7402 cells at 2.5 uM after 48 hrs by Western blotting analysis; format: functional, cell-based
[30] = Induction of apoptosis in human HL-7702 cells assessed as late apoptotic cells at 2.5 uM after 48 hrs by annexin V-FITC/propidium iodide staining based flow cytometry (Rvb =8.6 %); format: cell-based; details: l02, 48 h
[31] = […] of Cdc25A expression in human HL-7702 cells assessed as reduction in mRNA level at 2.5 uM after 12 to 48 hrs by RT-PCR analysis; format: ADME, cell-based; details: l02, 2.5 µM
[32] = Cell cycle arrest in human HL-7702 cells assessed as accumulation at G2/M phase by FACS flow cytometry; format: cell-based; details: l02
Bcap37 = test: Cytotoxicity against human Bcap37 cells after 72 hrs by MTT assay; format: functional, cell-based; details: Bcap37, 72 h
Bel-7402 [33] = test: Cytotoxicity against human Bel7402 cells measured for 72 hrs by MTT assay; format: functional, cell-based

For CC1(C)CC[C@]23CO[C@@]4(CC[C@@H]5[C@@]6(C)CC[C@H](O[C@@H]7OC[C@H](O[C@@H]8O[C@H](CO)[C@@H](O)[C@H](O[C@@H]9O[C@H](CO)[C@@H](O)[C@H](O[C@@H]%10O[C@H](CO)[C@@H](O)[C@H](O)[C@H]%10O)[C@H]9O)[C@H]8O[C@@H]8OC[C@@H](O)[C@H](O)[C@H]8O)[C@H](O)[C@H]7O[C@@H]7O[C@H](CO)[C@@H](O)[C@H](O)[C@H]7O)C(C)(C)[C@@H]6CC[C@@]5(C)[C@]4(C)C[C@H]2O)[C@@H]3C1 [ARDISIANOSIDE B], the IC50 (A549) was 4.47 µM, the Activity [1] was 8.3% and the Activity (Bel-7402 [2]) was 3.2%. The IC50 (NCI-H446) was 6.63 µM, the Activity (Bel-7402 [3]) was “Active” and the IC50 (DU-145) was 6.17 µM. For the same compound, the IC50 [4] was over 100 µM, the Activity [5] was “Dose-dependent effect” and the IC50 (MKN-45) was 8.39 µM. For the same compound, the IC50 (SGC-7901) was 5.37 µM, the IC50 (NCI-H460) was over 10 µM and the Activity [6] was 19.1%. For the same compound, the IC50 [7] was over 10 µM, the IC50 (MCF7) was over 10 µM and the Activity (Bel-7402 [8]) was 17.6%. The Activity (Bel-7402 [9]) was “Active”, the Activity (Bel-7402 [10]) was 25.5% and the IC50 (NCI-H157) was 5.09 µM. The Activity (Bel-7402 [11]) was 41.5%, the Activity [12] was under 1% and the Activity [13] was 10%. For the same compound, the IC50 (Caco-2) was 7.19 µM, the Activity [14] was “tde” and the Activity (Bel-7402 [15]) was “Active”. For the same compound, the IC50 (Bel-7402 [16]) was 0.92 µM, the Activity [17] was 68.4% and the Activity (Bel-7402 [18]) was 74.5%. For the same compound, the Activity (Bel-7402 [19]) was “tde”, the Activity (Bel-7402 [20]) was 3.9% and the Activity (Bel-7402 [21]) was “Active”. For the same compound, the Activity (Bel-7402 [22]) was 39.4%, the Activity (Bel-7402 [23]) was 46.4% and the Activity (Bel-7402 [24]) was “Active”. For the same compound, the IC50 (HepG2) was 2.98 µM, the IC50 (HCT-116) was over 10 µM and the Activity (Bel-7402 [25]) was “Active”. The Activity (Bel-7402 [26]) was “Active”, the IC50 (OVCAR-3) was over 10 µM and the Activity (Bel-7402 [27]) was 57.8%. For the same compound, the Activity (Bel-7402 [28]) was “Active”, the Activity (Bel-7402 [29]) was “Active” and the Activity [30] was 9.2%. The Activity [31] was “Toxic”, the Activity [32] was 12.5% and the IC50 (Bcap37) was over 10 µM. The Activity (Bel-7402 [33]) was “Dose-dependent effect”.
